The values below come from publication PMC7593722, “UPLC-MS/MS Method for the Simultaneous Quantification of Eight Compounds in Rat Plasma and Its Application to a Pharmacokinetic Study after Oral Administration of Veratrum (Veratrum nigrum L.) Extract” (BioMed Research International, 2020).

The nature of this data set: in vivo. To be noted: for Tmax: T max; for Detection in rat plasma after dosing: no complete pharmacokinetic curve. The protocol: 0.1% formic acid in water (A) and acetonitrile (B) were used as mobile phases with the following gradient elution method: 0-2 min, 15%-25% B; 2-4 min, 25%-50% B; 4-6 min, 50%-90% B; and 6-7 min, 90%-95% B. The separation was performed on a Waters ACQUITY UPLC® CSHTM Phenyl-Hexyl (2.1 × 100 mm, 1.7 μm) column, and the temperature was maintained at 20°C. The flow rate and injection volume were 0.3 mL/min and 5 μL, respectively.
100 μL plasma sample was incorporated with 20 μL methanol and 20 μL of IS (20 ng/mL), and vortexed for 30 seconds. 1 mL ethyl acetate was then added to the sample and vortex-mixed for 3 min. […] The obtained residue was reconstituted in 100 μL methanol and centrifugation at 12000 × g for 10 min. 5 μL of the supernatant was injected for UPLC-MS/MS measurement.
Six male Sprague-Dawley rats (body weight, 220 ± 10 g) were used for this experiment. […] 0.5% CMC-Na aqueous solution was used to dissolve the Veratrum nigrum L. extract to a concentration of 0.2 g/mL suspension. […] After centrifugation at 4000 × g for 10 min at 4°C, the collected plasma was transferred into clean tubes and frozen at -80°C until next analysis. Pharmacokinetic parameters were calculated using “Drug and Statistics 3.0” (DAS 3.0) (Medical College of Wannan, China). The animal protocol was approved by the Animal Ethics Committee of Tianjin University of Traditional Chinese Medicine (TCM-LAEC20190060).
Some important pharmacokinetic parameters were calculated in this study including Cmax, the maximum plasma concentration and time to reach Cmax of each compound (Tmax). The T1/2 was the elimination half-life and it reflects the elimination rate of the drug in the body. The area under the plasma concentration-time curve AUC(0 − t) was calculated using the trapezoidal rule and extrapolated to infinity for AUC(0 − ∞). The mean residence time (MRT) of these ingredients was also investigated.

Where [1] appears, read: male, Sprague-Dawley, rat, in vivo, po, 2 g/kg.
Setting [2] is: male, Sprague-Dawley, rat, in vivo, po, 2 g/kg, male Sprague-Dawley rats, oral Veratrum nigrum L. extract 2 g/kg, plasma, n = 6, mean ± SD.
Where [3] appears, read: oral Veratrum nigrum L. extract 2 g/kg.

Structures are written as SMILES.

For orientation: AUC(0-inf) means the area under the concentration-time curve extrapolated to infinity. Read a high AUC(0-inf) as more exposure. In general, AUC(0-t) refers to the area under the concentration-time curve up to a stated or last time point. Lower therefore signals low exposure. A word on the Cmax: it is the maximum level reached in the sampled fluid or tissue. The MRT is the average time that molecules of a dose stay in the body. The term MRT inf denotes the average time that molecules of a dose stay in the body. The half-life is how long it takes for the measured level to halve. For orientation: Tmax means the time at which the peak concentration occurs. For the setting “male Sprague-Dawley rats, oral Veratrum nigrum L. extract 2 g/kg, plasma, n = 6, mean ± SD”, `CC1=C2C(=O)[C@H]3[C@@H](CC=C4C[C@@H](O)CC[C@@]43C)[C@@H]2CC[C@]12O[C@@H]1C[C@H](C)CN[C@H]1[C@H]2C` [Jervine, jervine] came in with a T max of 32.00 ± 6.20 h. Moreover, under setting [1], the AUC(0-inf) stood at 22700 ± 9430 ng·h/mL, the AUC(0-t) came to 22600 ± 9390 ng·h/mL, the peak level (Cmax) was 515 ± 242 ng/mL and the MRT was determined as 38.8 ± 5.58 h. Moreover, under setting [1], the MRT inf is 39.1 ± 5.53 h and the half-life was 13.6 ± 1.36 h. Besides, the Tmax under setting [2] was more than 32 h.

Turning to `OC[C@H]1O[C@@H](Oc2cc(O)cc(/C=C/c3ccc(O)cc3)c2)[C@H](O)[C@@H](O)[C@@H]1O` [Polydatin, polydatin], under setting [1], the area under the curve AUC(0-inf) came to 71.2 ± 13.9 ng·h/mL, the AUC(0-t) is 60.4 ± 18.1 ng·h/mL, the Cmax is 27.1 ± 24 ng/mL and the MRT was 13.2 ± 2.98 h. Besides, under setting [1], the MRT inf was 16.5 ± 13.7 h and the half-life was 14.4 ± 10.6 h. The Tmax under setting [2] is 0.26 ± 0.29 h.

Under setting [1], `Cc1c([C@H](C)[C@@H]2NC[C@@H](C)C[C@H]2O)ccc2c1C[C@H]1[C@H]2CC=C2C[C@@H](O)CC[C@@]21C` [Veratramine, veratramine] gave an AUC(0-inf) of 8000 ± 2330 ng·h/mL, an AUC(0-t) of 7980 ± 2330 ng·h/mL, a Cmax of 193 ± 76.5 ng/mL and an MRT of 38.8 ± 5.83 h. Under setting [1], the MRT inf came to 39 ± 5.91 h, the T max is given as 34.08 ± 23.14 h, the half-life was 14.2 ± 6.51 h and the Tmax is more than 32 h.

Take `O=c1cc(-c2ccc(O)cc2)oc2cc(O)cc(O)c12` [Apigenin, apigenin]: the “Detection in rat plasma after dosing” value under setting [3] is on record as “only detected at the first few plasma sampling points”.

As for `CC1=C2C[C@H]3[C@@H](CC=C4C[C@@H](O)CC[C@@]43C)[C@@H]2CC[C@]12O[C@@H]1C[C@H](C)CN[C@H]1[C@H]2C` [Cyclopamine, cyclopamine], the “Detection in rat plasma after dosing” value under setting [3] was “only detected at the first few plasma sampling points”.

Turning to `Oc1ccc(/C=C/c2cc(O)cc(O)c2)cc1` [Resveratrol, resveratrol], under setting [1], the AUC(0-inf) amounted to 101 ± 51.5 ng·h/mL, the AUC(0-t) stood at 89.7 ± 49.3 ng·h/mL, the Cmax came to 45 ± 39.5 ng/mL and the MRT turned out to be 13.2 ± 7.77 h. Under setting [1], this compound showed an MRT inf of 19 ± 15.5 h and a half-life of 2.24 ± 1.11 h. Besides, the Tmax under setting [2] amounted to 0.18 ± 0.17 h.

Under setting [1], `Cc1c([C@H](C)[C@@H]2NC[C@@H](C)C[C@H]2O)ccc2c1C[C@H]1[C@H]2CC=C2C[C@@H](O[C@@H]3O[C@H](CO)[C@@H](O)[C@H](O)[C@H]3O)CC[C@@]21C` [Veratrosine, veratrosine] displayed an AUC(0-inf) of 421 ± 199 ng·h/mL, an AUC(0-t) of 410 ± 183 ng·h/mL, a Cmax of 237 ± 155 ng/mL and an MRT of 10.5 ± 6.9 h. Moreover, under setting [1], the MRT inf was determined as 11.3 ± 7.68 h and the half-life was 11.5 ± 7.04 h. Besides, the Tmax under setting [2] is 0.08 h.

Take `O=c1c(O)c(-c2ccc(O)c(O)c2)oc2cc(O)cc(O)c12` [Quercetin, quercetin]: the “Detection in rat plasma after dosing” value under setting [3] was “only detected at the first few plasma sampling points”.
